A word on the IC50: it is the midpoint of a concentration-inhibition curve.

Experiment [1] concerns the target T1, mitochondrial pyruvate carrier (MPC) (Homo sapiens, UniProt O95563+Q9Y5U8).
T1 sequence (Q9Y5U8 1-109): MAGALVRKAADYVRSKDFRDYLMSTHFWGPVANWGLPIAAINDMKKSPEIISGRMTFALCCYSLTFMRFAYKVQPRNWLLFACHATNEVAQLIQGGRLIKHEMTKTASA
T1 sequence (O95563 1-127): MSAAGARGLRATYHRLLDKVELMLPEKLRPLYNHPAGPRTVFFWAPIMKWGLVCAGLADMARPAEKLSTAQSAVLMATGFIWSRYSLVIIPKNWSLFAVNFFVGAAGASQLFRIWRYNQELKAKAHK
Description: Bret IC50, inhibitory activity against MPC. The class given is cell-based. The text has this: (§1) The inhibition of mitochondrial pyruvate carrier (MPC) by compounds of the invention have been tested as follows and their inhibitory activity was expressed as IC50s values.
Table 2 below presents the IC50s of the compounds of the invention.

In experiment [2] the target is T1, mitochondrial pyruvate carrier (MPC). Description: Seahorse Xfe24 pyruvate-dependent OCR in HeLa cells. Conditions: pyruvate-dependent OCR in presence of fCCP. The class given is cell-based. The method, then:
as §1
Cells are plated in the customized Seahorse plates. For HeLa cells, seeding is at 4×10^4 cells/well in […] DMEM, 10% FBS, 1% pen/strep/glutamine. 3 wells are left blank (medium alone) for internal calibration. The assay cartridge is hydrated overnight at 37° C. in 1 ml/well XF Calibrant Solution.
Since 50 μl of compound of the invention will be injected into 450 μl washed cells, compounds are made up in assay medium at 10× the final desired concentration
For dose response analyses, compounds are tested at final concentrations 30, 5, 0.83, 0.14, 0.023 μM (1:6 serial dilutions from […])
Positive control: […] (the parent hit compound which gave rise to the actual series)
Negative control: Assay medium alone.
The seahorse reagent plate is prepared as follows and transfered to the Xfe24 analyser for the calibration step:
The medium is almost completely removed from the well without allowing cells to dry Cells are washed twice with 300 μl Assay Medium. 450 μl fresh Assay Medium is added to each well. The plate is transferred to the Xfe24 analyser for measurement of pyruvate-dependent OCR. All values are normalized to the initial basal respiration rate in each well which is measured prior to addition of compounds and designated as 100%. IC50 determination is based on the average of the 3 measurements made in the presence of fCCP, taking 30 μM parent hit compound as maximal inhibition and PBS/Ca/Mg as zero inhibition.

Experiment [3] has as its system CD8 T cells (OT1 splenocytes). Put plainly: In vitro priming of CD8 T cells (OT1 splenocytes), memory marker expression by flow cytometry. In kind it is cell-based, mouse. As to conditions: day 7, highest doses. The method, then: OT1 splenocytes were cultured for 3 days at a concentration of 10^6 cells per mL in RPMI medium (Gibco 61870-01) supplemented with 10% FBS, (Gibco 10270-106), 1% Penicillin/Streptomycin (Gibco 15070-063), 50 μM ß-mercaptoethanol, 1% HEPES (Gibco 15630-080), 1× Non-essential amino acids (Gibco 11140-035), 1% L-glutamine (Gibco 25030-081), 1 mM Sodium Pyruvate (Gibco 11360-039). Cells were additionally supplemented with hIL-2 100 U/ml (Glaxo-IMB), ovalbumin N4 peptide (257-264) 1 μg/ml (model peptide antigen from ovalbumin) and either different concentrations of Compound 45 or 47 or with their solvent DMSO as a control. At day 3, splenocytes were collected, washed and split, and cells were cultured for 4 additional days with 100 U/ml hIL-2 and hIL-7 (Peprotech 200-07) supplemented either with Compound 45 or 47 or DMSO. At day 7, flow cytometry analyses were performed for surface marker expression.
To evaluate the effects of MPC inhibition on T cell differentiation, OTI splenocytes were cultured in the presence of 1 μg/ml ovalbumin-derived N4 peptide, 100 IU/ml recombinant human IL-2 (rhIL-2) and the MPC inhibitors Compound 45 or 47 or control DMSO for 3 days. The cells were cultured for 4 more days in the presence of 100 IU/ml IL-2 and 10 ng/ml rhIL-7 (FIG. 1A) and the inhibitors or DMSO. When analyzing the surface expression of the central memory marker CD62L (FIG. 1B) and the pro-survival receptor CD127 (FIG. 1C) by flow cytometry on day 7, an increase in cells treated with the highest doses of compounds of the invention was observed compared to DMSO.
Background: A flow cytometer gives signals particle by particle.

Compound `CCCc1cc(=O)[nH]c2nnc(SCc3cc(F)cc(F)c3)n12` [Compound 3, 3-[(3,5-difluorobenzyl)sulfanyl]-5-propyl[1,2,4]triazolo[4,3-a]pyrimidin-7 (8H)-one] displayed an IC50 in experiment [1] of 2.2 µM.

`CCCc1cc(=O)[nH]c2nnc(SCc3cccc(C#N)c3)n12` [Compound 7, 3-{[(7-oxo-5-propyl-7,8-dihydro[1,2,4]triazolo[4,3-a]pyrimidin-3-yl)sulfanyl]methyl}benzonitrile] registered an IC50 in experiment [1] of 10.2 µM.

Compound `CCCc1cc(=O)[nH]c2nnc(SCc3cc(F)ccc3C#N)n12` [Compound 8, 4-fluoro-2-{[(7-oxo-5-propyl-7,8-dihydro[1,2,4]triazolo[4,3-a]pyrimidin-3-yl)sulfanyl]methyl}benzonitrile] had an IC50 in experiment [1] of 5.39 µM.

For the compound `CCCc1cc(=O)[nH]c2nnc(SCc3cc(F)ccc3OC)n12` [Compound 9, 3-[(5-fluoro-2-methoxybenzyl)sulfanyl]-5-propyl[1,2,4]triazolo[4,3-a]pyrimidin-7 (8H)-one], the IC50 in experiment [2] was found to be 0.185 µM; in experiment [1], 0.878 µM.

Turning to `CCCc1cc(=O)[nH]c2nnc(SCc3cc(F)ccc3C)n12` [Compound 12, 3-[(5-fluoro-2-methylbenzyl)sulfanyl]-5-propyl[1,2,4]triazolo[4,3-a]pyrimidin-7 (8H)-one], the figures for the IC50 in experiment [2] and in experiment [1] were 0.158 µM and 0.561 µM, respectively.

Compound `CCCc1cc(=O)[nH]c2nnc(SCCc3ccccc3)n12` [Compound 14, 3-[(2-phenylethyl)sulfanyl]-5-propyl[1,2,4]triazolo[4,3-a]pyrimidin-7 (8H)-one] showed an IC50 in experiment [1] of 1.75 µM.

With `CCCc1cc(=O)[nH]c2nnc(SCc3ccoc3)n12` [Compound 15, 3-[(furan-3-ylmethyl)sulfanyl]-5-propyl[1,2,4]triazolo[4,3-a]pyrimidin-7 (8H)-one], it took 2.09 µM to reach half-maximal inhibition in experiment [1] (IC50).

As to `CCCc1cc(=O)[nH]c2nnc(SCc3cccc(OC)c3)n12` [Compound 17, 3-[(3-methoxybenzyl)sulfanyl]-5-propyl[1,2,4]triazolo[4,3-a]pyrimidin-7 (8H)-one], in experiment [1], half-maximal inhibition (IC50) was put at 2.03 µM.

Compound `CCCc1cc(=O)[nH]c2nnc(SCc3ccc(C#N)cc3)n12` [Compound 18, 4-{[(7-oxo-5-propyl-7,8-dihydro[1,2,4]triazolo[4,3-a]pyrimidin-3-yl)sulfanyl]methyl}benzonitrile] registered a half-maximal inhibitory concentration (IC50) in experiment [1] of 4.21 µM.

For the compound `CCCc1cc(=O)[nH]c2nnc(SCc3ccc4occc4c3)n12` [Compound 19, 3-[(1-benzofuran-5-ylmethyl)sulfanyl]-5-propyl[1,2,4]triazolo[4,3-a]pyrimidin-7 (8H)-one], the IC50 in experiment [1] worked out at 3.48 µM.

`CCCc1cc(=O)[nH]c2nnc(SCc3c(C)cccc3C)n12` [Compound 25, 3-[(2,6-dimethylbenzyl)sulfanyl]-5-propyl[1,2,4]triazolo[4,3-a]pyrimidin-7 (8H)-one]: the IC50 in experiment [2] is 0.171 µM; in experiment [1], 0.593 µM.

On to `Cc1cc(=O)[nH]c2nnc(SCc3cc(F)ccc3F)n12` [Compound 29, 3-[(2,5-difluorobenzyl)sulfanyl]-5-methyl[1,2,4]triazolo[4,3-a]pyrimidin-7 (8H)-one], for which the IC50 in experiment [1] was 5.81 µM.

Take `O=c1cc(CCOCc2ccccc2)n2c(SCc3cc(F)ccc3F)nnc2[nH]1` [Compound 30, 5-[2-(benzyloxy)ethyl]-3-[(2,5-difluorobenzyl)sulfanyl][1,2,4]triazolo[4,3-a]pyrimidin-7 (8H)-one]: the results for the IC50 in experiment [2] and in experiment [1] were 1.65 µM and 0.943 µM, respectively.

Take `COCc1cc(=O)[nH]c2nnc(SCc3cc(F)ccc3F)n12` [Compound 31, 3-[(2,5-difluorobenzyl)sulfanyl]-5-(methoxymethyl) [1,2,4]triazolo[4,3-a]pyrimidin-7 (8H)-one]: the half-inhibitory concentration (IC50) in experiment [1] is 5.66 µM.

As to `O=c1cc(CCOCc2ccccc2Cl)n2c(SCc3cc(F)ccc3F)nnc2[nH]1` [Compound 33, 5-{2-[(2-chlorobenzyl)oxy]ethyl}-3-[(2,5-difluorobenzyl)sulfanyl][1,2,4]triazolo[4,3-a]pyrimidin-7 (8H)-one], the IC50 in experiment [2] was found to be 1.04 µM; in experiment [1], 1.32 µM.

`O=c1cc(C2CC2)n2c(SCc3c(F)cccc3Cl)nnc2[nH]1` [Compound 39, 3-[(2-chloro-6-fluorobenzyl)sulfanyl]-5-cyclopropyl[1,2,4]triazolo[4,3-a]pyrimidin-7 (8H)-one]: the IC50 in experiment [1] was 0.593 µM.

Turning to `CC(C)Cc1cc(=O)[nH]c2nnc(SCc3c(F)cccc3Cl)n12` [Compound 40, 3-[(2-chloro-6-fluorobenzyl)sulfanyl]-5-(2-methylpropyl) [1,2,4]triazolo[4,3-a]pyrimidin-7 (8H)-one], the half-maximal inhibitory concentration (IC50) in experiment [2] was determined as 0.218 µM; in experiment [1], 0.391 µM.

Turning to `O=c1cc(CC2CC2)n2c(SCc3c(F)cccc3Cl)nnc2[nH]1` [Compound 41, 3-[(2-chloro-6-fluorobenzyl)sulfanyl]-5-(cyclopropylmethyl) [1,2,4]triazolo[4,3-a]pyrimidin-7 (8H)-one], in experiment [1], the IC50 worked out at 0.129 µM.

In the case of `O=c1cc(CCOCc2ccccc2)n2c(SCc3c(F)cccc3Cl)n[nH]c2n1` [Compound 43, 5-[2-(benzyloxy)ethyl]-3-[(2-chloro-6-fluorobenzyl)sulfanyl][1,2,4]triazolo[4,3-a]pyrimidin-7 (1H)-one], the figures for the IC50 in experiment [2] and in experiment [1] were 0.289 µM and 0.814 µM, respectively.

`N#Cc1ccc(CSc2nnc3[nH]c(=O)cc(Cc4ccccc4)n23)cc1` [Compound 46, 4-{[(5-benzyl-7-oxo-7,8-dihydro[1,2,4]triazolo[4,3-a]pyrimidin-3-yl)sulfanyl]methyl}benzonitrile]: 4.69 µM corresponded to half-maximal inhibition in experiment [1] (IC50).

Take `CCCc1cc(=O)[nH]c2nnc(Sc3ccccc3)n12` [Compound 47, 3-(phenylsulfanyl)-5-propyl[1,2,4]triazolo[4,3-a]pyrimidin-7 (8H)-one]: the half-inhibitory concentration (IC50) in experiment [2] stood at 0.184 µM; in experiment [1] it was 0.167 µM. In experiment [3] (vs DMSO (FIG. 1B)), the “cells positive for central memory marker CD62L” value is “increase”. Further, the “cells positive for pro-survival receptor CD127” value in experiment [3] (vs DMSO (FIG. 1C)) was “increase”.

Consider `CCCc1c(C)c(=O)[nH]c2nnc(SCc3c(F)cccc3Cl)n12` [Compound 48, 3-[(2-chloro-6-fluorobenzyl)sulfanyl]-6-methyl-5-propyl[1,2,4]triazolo[4,3-a]pyrimidin-7 (8H)-one], for which the IC50 in experiment [1] was determined as 0.873 µM.

For the compound `CCCc1cc(=O)[nH]c2nnc(S(=O)(=O)Cc3c(F)cccc3Cl)n12` [Compound 50, 3-[(2-chloro-6-fluorobenzyl)sulfonyl]-5-propyl[1,2,4]triazolo[4,3-a]pyrimidin-7 (8H)-one], the 50% inhibitory concentration (IC50) in experiment [1] is 11.2 µM.

As to `CCCc1cc(=O)[nH]c2nnc(CCc3ccccc3)n12` [Compound 51, 3-(2-phenylethyl)-5-propyl[1,2,4]triazolo[4,3-a]pyrimidin-7 (8H)-one], the IC50 in experiment [1] came out at 3.65 µM.

In experiment [1], `Cc1cc(=O)[nH]c2nnc(SCc3ccc(Cl)cc3)n12` [Compound 85, 3-[(4-chlorobenzyl)sulfanyl]-5-methyl[1,2,4]triazolo[4,3-a]pyrimidin-7 (8H)-one] yielded an IC50 of 12.5 µM.

For `CCCc1cc(=O)[nH]c2nnc(SCc3cccc4ccccc34)n12` [Compound 90, 3-[(naphthalen-1-ylmethyl)sulfanyl]-5-propyl[1,2,4]triazolo[4,3-a]pyrimidin-7 (8H)-one], inhibition in experiment [1] was half-maximal at 2.5 µM (IC50).

The values are drawn from US20240360143A1, “[1,2,4]TRIAZOLO[4,3-A]PYRIMIDIN-7(8H)-ONE AS MITOCHONDRIAL PYRUVATE CARRIER INHIBITORS FOR USE IN THE TREATMENT OF CANCER” (MPC THERAPEUTICS SA, priority 2021, published 2024).
